Source: US20140142140A1, “PHARMACEUTICAL COMPOSITION FOR NEUROLOGICAL DISORDERS” (priority 2011, published 2014)
Structures can show the parent of a compound that is named as a salt.

test system: patients with autism / ASD / communication disorder; experiment: Case reports, Autism and other Pervasive Development Disorders (Example 6); assay type: in vivo, human; conditions: Patient 6, ASD; 50 mg daily
Source text: Patient 6A: Adult, diagnosed in childhood with autism and ADHD. A long history of behavioural disturbance with frequent episodes of violence despite treatment with high-dose antipsychotic medication. […] The high-dose antipsychotic medication has been reduced without any associated loss of recent benefit. […] A history of behavioural disturbance and educational impairment. […] Patient 6C was an adult, diagnosed in childhood with autism and ADHD with a history of behavioural disturbance and educational impairment. […] Patient 6D: Adult, diagnosed in childhood with autism, ADHD and antisocial personality traits. […] Patient C's conversation became more appropriate and consistent together with reported improvements in significant relationships. […] Patient 6E was an adult, diagnosed with communication disorder and major depression. […] Patient 6F was an adult with ASD. […] The patient's conversation became more appropriate and consistent and improvements in significant relationships were reported. A reduction in the reliance on alcohol to alleviate anxiety in social situations was observed. […] Sodium valproate was withdrawn and improvement was noted. […] Patient 6G was as adult, diagnosed in childhood with ASD. […] Sodium valproate was withdrawn. […] This has also been associated with improvements in reading and verbal understanding. These benefits have been sustained in some situations for three years. Although difficult to be objective, there seems to be good evidence of ongoing improvement. […] Improvements in coordination, in fine and gross motor control have been reported and improvement in gait which frequently is a significant issue for individuals with autistic disorders.

Row | SMILES | behaviour, verbal and non-verbal communication
1 | CCCC(CCC)C(=O)O.[Na] [sodium valproate, sodium di-n-propylacetic acid] | significant improvement in behaviour, verbal and non-verbal communication

same assay, conditions: Patient 6; 25 mg daily

Row | SMILES | reintroduction at lower dose
2 | CCCC(CCC)C(=O)O.[Na] [sodium valproate, sodium di-n-propylacetic acid] | successfully reintroduced

same assay, conditions: Patient 6; 50 mg daily

Row | SMILES | adverse effects within three days
3 | CCCC(CCC)C(=O)O.[Na] [sodium valproate, sodium di-n-propylacetic acid] | increasing cognitive slowing, general malaise and tiredness

same assay, conditions: Patient 6E, communication disorder and major depression; 50 mg

Row | SMILES | communication
4 | CCCC(CCC)C(=O)O.[Na] [sodium valproate, sodium di-n-propylacetic acid] | significant improvement in communication

same assay, conditions: Patient 6E; 25 mg daily

Row | SMILES | communication
5 | CCCC(CCC)C(=O)O.[Na] [sodium valproate, sodium di-n-propylacetic acid] | sustained improvement in the ability to communicate with less effort

same assay, conditions: Patient 6E; medication ceased

Row | SMILES | benefits when medication ceased
6 | CCCC(CCC)C(=O)O.[Na] [sodium valproate, sodium di-n-propylacetic acid] | initial benefits were lost

same assay, conditions: Patient 6G; 25 mg on alternate days

Row | SMILES | communication, eye contact, motor tics, social engagement
7 | CCCC(CCC)C(=O)O.[Na] [sodium valproate, sodium di-n-propylacetic acid] | sustained improvement in the communication, eye contact during dialogue, reduction in motor tics and greater social engagement and independently motivated activity

same assay, conditions: Patient 6G; 50 mg daily

Row | SMILES | communication and other symptoms of ASD | side-effects
8 | CCCC(CCC)C(=O)O.[Na] [sodium valproate, sodium di-n-propylacetic acid] | improvement in communication and other symptoms of ASD | low mood and irritability

test system: patients with Alzheimer's type dementia; experiment: Case reports, Mild Cognitive Impairment (MCI) and Dementia (Example 1); assay type: in vivo, human; conditions: Patient 1B, 7 year history of Alzheimer's type dementia
Source text: Patient 1A was an elderly person with history of impairment of cognitive function. Presumptive diagnosis of possible dementia of Alzheimers type.
Patient 1B was an elderly retired person with a 7 year history of Alzheimer's type dementia treated with the cholinesterase inhibitor Donepezil. […] Their cognitive function has gradually deteriorated since this time. […] Their reading was more fluent being better able to follow the meaning of the text. There was also improvement in their Stroop Test particularly in part three, the more cognitively demanding where their accuracy improved from 50 to 90%.

Row | SMILES | subjective cognitive functioning and ADAS-cog
9 | COc1cc2c(cc1OC)C(=O)C(CC1CCN(Cc3ccccc3)CC1)C2 (stereo not shown) [Donepezil] | significant improvement in their subjective cognitive functioning

test system: mood stabilisation or epileptic symptoms or events; experiment: not given; conditions: in vivo; cited from earlier work

Row | SMILES | Minimum typical dose/day effective for mood stabilisation or treatment of epileptic symptoms or events [mg/kg daily]
10 | CN1C(=O)CC(=O)N(c2ccccc2)c2cc(Cl)ccc21 [Clobazam] | 5

same assay, conditions: per day; cited from earlier work

Row | SMILES | Minimum typical dose/day effective for mood stabilisation or treatment of epileptic symptoms or events
11 | CCC1(c2ccc(N)cc2)CCC(=O)NC1=O (stereo not shown) [Aminoglutethimide] | 125 mg
12 | CCC1(c2ccccc2)C(=O)NC(=O)NC1=O.CNC(C)CC1CCCCC1 [Barbexaclone] | 200 mg in divided doses
13 | CCC[C@@H]1CC(=O)N([C@@H](CC)C(N)=O)C1 [Brivaracetam] | 100 mg
14 | NC(=O)N1c2ccccc2C=Cc2ccccc21 [Carbamazepine] | 400 mg
15 | O=C1CN=C(c2ccccc2Cl)c2cc([N+](=O)[O-])ccc2N1 [Clonazepam] | 1 mg
16 | CCN1C(=O)OC(C)(C)C1=O [Ethadione] | 1000 mg
17 | CCC1(C)CC(=O)NC1=O (stereo not shown) [Ethosuximide] | 1000 mg
18 | CCN1C(=O)NC(c2ccccc2)C1=O (stereo not shown) [Ethotoin] | 1000 mg
19 | NC(=O)OCC(COC(N)=O)c1ccccc1 [Felbamate] | 1200 mg
20 | O=C1NC(c2ccccc2)(c2ccccc2)C(=O)N1COP(=O)(O)O [Fosphenytoin Sodium] | 10 mg/kg
21 | NCC1(CC(=O)O)CCCCC1 [Gabapentin, 2-[1-(aminomethyl)cyclohexyl]acetic acid] | 900 mg
22 | COC[C@@H](NC(C)=O)C(=O)NCc1ccccc1 [Lacosamide] | 200 mg
23 | Nc1nnc(-c2cccc(Cl)c2Cl)c(N)n1 [Lamotrigine, 3,5-diamino-6-(2,3-dichlorophenyl)-1,2,4-triazine] | 100 mg
24 | CC[C@@H](C(N)=O)N1CCCC1=O [Levetiracetam] | 1000 mg
25 | COC1=CC(=O)OC1C(O)c1ccccc1Cl (stereo not shown) [Losigamone] | 1500 mg
26 | CCC1(c2ccccc2)NC(=O)N(C)C1=O (stereo not shown) [Mephenytoin] | 200 mg

Row | SMILES | Minimum typical dose/day effective for mood stabilisation or treatment of epileptic symptoms or events
27 | CCC1(c2ccccc2)NC(=O)N(C)C1=O (stereo not shown) [Methoin] | 1000 mg
28 | CN1C(=O)CC(C)(c2ccccc2)C1=O (stereo not shown) [Methsuximide] | 300 mg
29 | NC(=O)N1c2ccccc2CC(=O)c2ccccc21 [Oxcarbazepine] | 600 mg
30 | CCC1(C)OC(=O)N(C)C1=O (stereo not shown) [Paramethadione] | 300 mg
31 | N#Cc1ccccc1-c1cc(-c2ccccn2)cn(-c2ccccc2)c1=O [Perampanel] | 2 mg
32 | NC(=O)NC(=O)Cc1ccccc1 [Phenacemide] | 500 mg
33 | CCC(C(=O)NC(N)=O)c1ccccc1 (stereo not shown) [Pheneturide] | 600 mg
34 | CN1C(=O)CC(c2ccccc2)C1=O (stereo not shown) [Phensuximide] | 1000 mg
35 | CC(C)C[C@H](CN)CC(=O)O [Pregabalin, (S)-3-(aminomethyl)-5-methylhexanoic acid] | 300 mg
36 | CCC1(c2ccccc2)C(=O)NCNC1=O [Primidone] | 750 mg
37 | NS(=O)(=O)c1ccc(N2CCCCS2(=O)=O)cc1 [Sultiame] | 200 mg
38 | Cc1ccsc1C(=CCCN1CCC[C@@H](C(=O)O)C1)c1sccc1C [Tiagabine Hydrochloride] | 30 mg
39 | CC1(C)O[C@@H]2[C@@H](CO[C@@]3(COS(N)(=O)=O)OC(C)(C)O[C@@H]23)O1 [Topiramate, 2,3:4,5-Bis-O-(1-methylethylidene)-beta-D-fructopyranose sulfamate] | 100 mg
40 | CN1C(=O)OC(C)(C)C1=O [Trimethadione] | 900 mg
41 | C=CC(N)CCC(=O)O (stereo not shown) [Vigabatrin] | 1000 mg
42 | NS(=O)(=O)Cc1noc2ccccc12 [Zonisamide] | 200 mg
